We go through two compounds from article PMC10465233, “Lys-urea-Aad, Lys-urea-Cmc and Lys-urea-Cms as potential pharmacophores for the design of PSMA-targeted radioligands to reduce off-target uptake in kidneys and salivary glands” (Theranostics, 2023).

Like-named read-outs stand apart in the source and are kept apart here.

The test system of series [1] is LNCaP tumor-bearing mice. The settings on record: cited from earlier work.
Details of series [2]: method as in earlier work. The settings on record: cited from earlier work.
Series [3] concerns LNCaP tumor-bearing mice. The series is described as follows: Radioligand therapy study in LNCaP tumor-bearing mice. The class given is in vivo, mouse. The conditions noted are these: 37 MBq injected. As to the method: Imaging, biodistribution and radioligand therapy experiments were performed following previously published procedures using male NOD-scid IL2Rg^null (NSG) or NOD.Cg-Rag1^tm1MomIl2rg^tm1Wjl/SzJ (NRG) mice [10]-[12],[14]-[15]. The experiments were conducted according to the guidelines established by the Canadian Council on Animal Care and approved by Animal Ethics Committee of the University of British Columbia. The mice were briefly sedated by inhalation of 2% isoflurane in oxygen, and implanted subcutaneously with 1×10^7 LNCaP cells behind the left shoulder. The mice were imaged or used in biodistribution studies when the tumor grew to 5-8 mm in diameter over a period of 4-5 weeks.
For radiotherapy study, tumor-bearing mice were injected with saline (the control group), [^177Lu]Lu-PSMA-617 (37 MBq) or [^177Lu]-HTK03170 (37, 18.5 and 9.3 MBq) (n = 7-8 per treatment group). Tumor size and body weight were measured twice a week from the date of injection (Day 0) until completion of the study (Day 180). Endpoint criteria were defined as > 20% weight loss, tumor volume > 1000 mm^3, or active ulceration of the tumor.

Where [4] appears, read: vs Glu-containing [^68Ga]Ga-HTK03041, 1 h post-injection.

Consider `O=C([O-])CN1CCN(CC(=O)[O-])CCN(CC(=O)NCC2CCC(C(=O)NC(Cc3c4ccccc4cc4ccccc34)C(=O)NCCCCC(NC(=O)NC(CCCC(=O)O)C(=O)O)C(=O)O)CC2)CCN(CC(=O)[O-])CC1.[68Ga+3]` (stereo not drawn) [[^68Ga]Ga-HTK03149], for which, in series [1] (1 h post-injection), the Kidney uptake is 4.15±1.46 %ID/g and the Tumor uptake is recorded as 19.1±6.37 %ID/g. In series [1] (1 h post-injection, listed as [^68Ga]HTK03149), the Tumor uptake is ~ 20 %ID/g. In addition, the Salivary gland uptake in series [1] (1 h post-injection, unreported data in b5) is on record as 0.22±0.06 %ID/g. Also, in series [1] (setting [4]), the “Reduction in kidney uptake” value is > 95% and the “Reduction in salivary gland uptake” value was > 95%.
With `O=C([O-])CN1CCN(CC(=O)[O-])CCN(CC(=O)NCC2CCC(C(=O)NC(Cc3ccc4ccccc4c3)C(=O)NCCCCC(NC(=O)NC(CCC(=O)O)C(=O)O)C(=O)O)CC2)CCN(CC(=O)[O-])CC1.[177Lu+3]` (stereo not drawn) [[^177Lu]Lu-PSMA-617], the Kinetics value in series [2] (source organ Brain) is recorded as 6.64E-03 MBq-h/MBq; in series [2] (source organ Heart), 3.28E-03 MBq-h/MBq; in series [2] (source organ Kidneys), 8.23E-01 MBq-h/MBq; in series [2] (source organ Large intestine contents) it was 8.80E-03 MBq-h/MBq; in series [2] (source organ Liver), 6.38E-02 MBq-h/MBq; in series [2] (source organ Lungs) it was 4.85E-03 MBq-h/MBq. For the same compound, the Kinetics value is recorded as 4.76E-03 MBq-h/MBq in series [2] (source organ Pancreas); 1.68E-01 MBq-h/MBq in series [2] (source organ Remainder of the body); 2.63E-02 MBq-h/MBq in series [2] (source organ Small intestine); 1.41E-02 MBq-h/MBq in series [2] (source organ Spleen); 2.34E-04 MBq-h/MBq in series [2] (source organ Stomach); 4.23E-03 MBq-h/MBq in series [2] (source organ Testes). Also, the Kinetics value is given as 4.01E-04 MBq-h/MBq in series [2] (source organ Thyroid) and 8.04E-01 MBq-h/MBq in series [2] (source organ Urinary bladder). Besides, the Median survival in series [3] was found to be 63 days.
